Experimental data reported in patent US20120157439A1, “RAF INHIBITOR COMPOUNDS AND METHODS OF USE THEREOF” (GENENTECH, INC., priority 2009, published 2012).
Like-named read-outs stand apart in the source and are kept apart here.

Target: T1, V600E full-length B-Raf (Homo sapiens, UniProt P15056, V600E)
T1 construct: 1 μM FSBA-MEK and 20 nM V600E full-length B-Raf; made in house; host or cells: sf9 insect cells (baculovirus)
Test: B-Raf IC50 Assay (B-RAF V600E inhibition assay, Example A)
Format: biochemical
Excerpt: Determining the activity of Raf in the sample is possible by a number of direct and indirect detection methods (US 2004/0082014). Activity of human recombinant B-Raf protein may be assessed in vitro by assay of the incorporation of radio labeled phosphate to recombinant MAP kinase (MEK), a known physiologic substrate of B-Raf, according to US 2004/0127496 and WO 03/022840. The activity/inhibition of V600E full-length B-Raf was estimated by measuring the incorporation of radio labeled phosphate from [γ-33P]ATP into FSBA-modified wild-type MEK (see Example A).
Activity of human recombinant B-Raf protein may be assessed in vitro by assay of the incorporation of radio labeled phosphate to recombinant MAP kinase (MEK), a known physiologic substrate of B-Raf, according to U.S. Patent Appl. Publication No. 2004/0127496 and WO 03/022840. Catalytically active human recombinant B-Raf protein is obtained by purification from sf9 insect cells infected with a human B-Raf recombinant baculovirus expression vector.
The activity/inhibition of V600E full-length B-Raf was estimated by measuring the incorporation of radio labeled phosphate from [γ-33P]ATP into FSBA-modified wild-type MEK. The […] assay mixtures contained 25 mM Na Pipes, pH 7.2, 100 mM KCl, 10 mM MgCl2, 5 mM β-glycerophosphate, 100 μM Na Vanadate, 4 μM ATP, 500 nCi [γ-33P]ATP, 1 μM FSBA-MEK and 20 nM V600E full-length B-Raf. Incubations were carried out at 22° C. in a Costar 3365 plate (Corning). Prior to the assay, the B-Raf and FSBA-MEK were preincubated together in assay buffer at 1.5× (20 μL of 30 nM and 1.5 μM, respectively) for 15 minutes, and the assay was initiated by the addition of 10 μL of […]. Following the 60-minute incubation, the assay mixtures were quenched by the addition of 100 μL of 25% TCA, the plate was mixed on a rotary shaker for 1 minute, and the product was captured on a Perkin-Elmer GF/B filter plate using a Tomtec Mach III Harvester. After sealing the bottom of the plate, 35 μL of Bio-Safe II (Research Products International) scintillation cocktail were added to each well and the plate was top-sealed and counted in a Topcount NXT (Packard).

[1] = B-Raf V600E assay of Example A: less than 100 nM, read-out: IC50
[2] = B-Raf V600E assay of Example A: less than about 1 μM, read-out: IC50
[3] = incorporation of radio labeled phosphate from [γ-33P]ATP into FSBA-modified wild-type MEK, 4 μM ATP, 20 nM V600E full-length B-Raf, 60-minute incubation, 22° C., read-out: BRAF V600E IC50

T1 sequence (P15056 whole entry V600E): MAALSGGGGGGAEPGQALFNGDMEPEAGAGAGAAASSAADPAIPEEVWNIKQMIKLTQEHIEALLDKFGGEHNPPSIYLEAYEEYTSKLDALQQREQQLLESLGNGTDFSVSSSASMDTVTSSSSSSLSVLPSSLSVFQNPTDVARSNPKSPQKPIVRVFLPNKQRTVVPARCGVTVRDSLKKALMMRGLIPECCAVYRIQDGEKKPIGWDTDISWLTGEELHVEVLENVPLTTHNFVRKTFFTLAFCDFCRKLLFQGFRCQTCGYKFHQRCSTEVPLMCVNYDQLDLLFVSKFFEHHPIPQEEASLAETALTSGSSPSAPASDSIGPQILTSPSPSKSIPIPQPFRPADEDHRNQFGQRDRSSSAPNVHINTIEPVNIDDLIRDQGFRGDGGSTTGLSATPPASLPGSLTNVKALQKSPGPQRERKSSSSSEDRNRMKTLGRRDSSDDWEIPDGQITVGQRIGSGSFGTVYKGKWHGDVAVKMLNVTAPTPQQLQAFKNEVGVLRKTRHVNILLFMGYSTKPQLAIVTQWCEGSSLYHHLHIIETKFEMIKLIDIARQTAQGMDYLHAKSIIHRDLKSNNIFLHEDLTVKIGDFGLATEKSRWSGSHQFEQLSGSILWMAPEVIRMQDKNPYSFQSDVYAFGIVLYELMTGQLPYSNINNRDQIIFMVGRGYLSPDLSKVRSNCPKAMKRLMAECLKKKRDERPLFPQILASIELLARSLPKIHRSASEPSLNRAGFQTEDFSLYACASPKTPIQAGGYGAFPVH

| IC50 [1] [µM] | IC50 [2] [µM] | IC50 [3] [µM] | SMILES |
| --- | --- | --- | --- |
| < 0.1 | < 1 | 0.0265 | CCCS(=O)(=O)Nc1ccc(F)c(NC(=O)c2csc3c(NCC(F)F)ncnc23)c1F [Example 53, 4-(2,2-Difluoro-ethylamino)-thieno[3,2-d] pyrimidine-7-carboxylic acid [2,6-difluoro-3-(propane-1-sulfonylamino)-phenyl]-amide] |
| < 0.1 | < 1 | 0.00011 | Nc1ncnc2c(C(=O)Nc3c(Cl)ccc(NS(=O)(=O)CCCF)c3Cl)csc12 [Example 24, 4-Amino-thieno[3,2-d] pyrimidine-7-carboxylic acid [2,6-dichloro-3-(3-fluoro-propane-1-sulfonylamino)-phenyl]-amide] |
| – | < 1 | 0.118 | CCCS(=O)(=O)Nc1cc(F)c(F)c(NC(=O)c2csc3c(NC4CC(F)(F)C4)ncnc23)c1F [Example 93, 4-(3,3-Difluoro-cyclobutyl-amino)-thieno[3,2-d] pyrimidine-7-carboxylic acid [2,3,6-trifluoro-5-(propane-1-sulfonyl-amino)-phenyl]-amide] |
| < 0.1 | < 1 | 0.0128 | CCCS(=O)(=O)Nc1ccc(F)c(NC(=O)c2csc3c(NCC(C)C)ncnc23)c1F [Example 57, 4-Isobutylamino-thieno[3,2-d] pyrimidine-7-carboxylic acid [2,6-difluoro-3-(propane-1-sulfonylamino)-phenyl]-amide] |
| < 0.1 | < 1 | 0.0279 | CCCS(=O)(=O)Nc1cc(F)c(F)c(NC(=O)c2csc3c(NC(C)C)ncnc23)c1F [Example 91, 4-Isopropyl-amino-thieno [3,2-d] pyrimidine-7-carboxylic acid [2,3,6-trifluoro-5-(propane-1-sulfonyl-amino)-phenyl]-amide] |
| < 0.1 | < 1 | 0.0116 | Nc1ncnc2c(C(=O)Nc3c(F)ccc(NS(=O)(=O)N4CCCC4)c3F)csc12 [Example 28, 4-Amino-thieno[3,2-d]pyrimidine-7-carboxylic acid[2,6-difluoro-3-(pyrrolidine-1-sulfonylamino)-phenyl]-amide] |
| < 0.1 | < 1 | 0.00389 | CCS(=O)(=O)Nc1ccc(Cl)c(NC(=O)c2csc3c(N)ncnc23)c1F [Example 3, 4-Amino-thieno[3,2-d] pyrimidine-7-carboxylic acid (6-chloro-3-ethane-sulfonylamino-2-fluoro-phenyl)-amide] |
| – | – | > 1 | CCCS(=O)(=O)Nc1ccc(Cl)c(NC(=O)c2csc3c(NC4CN(C)C4)ncnc23)c1Cl [Example 75, 4-(1-Methyl-azetidin-3-ylamino)-thieno[3,2-d] pyrimidine-7-carboxylic acid [2,6-dichloro-3-(propane-1-sulfonyl-amino)-phenyl]amide] |
| < 0.1 | < 1 | 0.0057 | CCCS(=O)(=O)Nc1cc(F)cc(NC(=O)c2csc3c(N)ncnc23)c1F [Example 20, 4-Amino-thieno[3,2-d] pyrimidine-7-carboxylic acid [2,5-difluoro-3-(propane-1-sulfonyl-amino)-phenyl]-amide] |
| < 0.1 | < 1 | 0.0017 | CCCS(=O)(=O)Nc1ccc(F)c(NC(=O)c2csc3c(Nc4cnn(C)c4)ncnc23)c1F [Example 61, 4-(1-Methyl-1H-pyrazol-4-ylamino)-thieno[3,2-d] pyrimidine-7-carboxylic acid [2,6-difluoro-3-(propane-1-sulfonylamino)-phenyl]-amide] |
| – | < 1 | 0.112 | CCCS(=O)(=O)Nc1ccc(F)c(NC(=O)c2csc3c(CC)ncnc23)c1F [Example 41, 4-Ethyl-thieno[3,2-d]pyrimidine-7-carboxylic acid [2,6-difluoro-3-(propane-1-sulfonylamino)-phenyl]-amide] |
| < 0.1 | < 1 | 0.00216 | CCNc1ncnc2c(C(=O)Nc3c(F)c(F)cc(NS(=O)(=O)CCCF)c3F)csc12 [Example 98, 4-Ethylamino-thieno[3,2-d] pyrimidine-7-carboxylic acid [2,3,6-trifluoro-5-(3-fluoro-propane-1-sulfonyl-amino)-phenyl]-amide] |
| < 0.1 | < 1 | 0.00289 | CCCS(=O)(=O)Nc1ccc(F)c(NC(=O)c2csc3c(N)ncnc23)c1F [Example 6, 4-Amino-thieno[3,2-d] pyrimidine-7-carboxylic acid [2,6-difluoro-3-(propane-1-sulfonylamino)-phenyl]-amide] |
| < 0.1 | < 1 | 0.0001 | Nc1ncnc2c(C(=O)Nc3c(Cl)ccc(NS(=O)(=O)CCCF)c3F)csc12 [Example 13, 4-Amino-thieno[3,2-d]pyrimidine-7-carboxylic acid[6-chloro-2-fluoro-3-(3-fluoro-propane-1-sulfonylamino)-phenyl]-amide] |
| – | < 1 | 0.177 | CCCS(=O)(=O)Nc1ccc(F)c(NC(=O)c2csc3c(NCCOC)ncnc23)c1F [Example 60, 4-(2-Methoxy-ethylamino)-thieno[3,2-d] pyrimidine-7-carboxylic acid [2,6-difluoro-3-(propane-1-sulfonylamino)-phenyl]-amide] |
| – | < 1 | 0.112 | CCCS(=O)(=O)Nc1ccc(F)c(NC(=O)c2c[nH]c3c(NOC)ncnc23)c1F [Example 105, 4-Methoxyamino-5H-pyrrolo[2-d]pyrimidine-7-carboxylic acid [2,6-difluoro-3-(propane-1-sulfonylamino)-phenyl]-amide] |
| < 0.1 | < 1 | 0.0026 | CC(C)CS(=O)(=O)Nc1ccc(F)c(NC(=O)c2csc3c(N)ncnc23)c1F [Example 19, 4-Amino-thieno[3,2-d] pyrimidine-7-carboxylic acid [2,6-difluoro-3-(2-methyl-propane-1-sulfonylamino)-phenyl]-amide] |
| – | < 1 | 0.353 | CCCS(=O)(=O)Nc1ccc(F)c(NC(=O)c2c[nH]c3cncnc23)c1F [Example 113, 5H-Pyrrolo[3,2-d] pyrimidine-7-carboxylic acid [2,6-difluoro-3-(propane-1-sulfonylamino)-phenyl]-amide] |
| < 0.1 | < 1 | 0.00269 | O=C(Nc1c(Cl)ccc(NS(=O)(=O)CCCF)c1Cl)c1csc2cncnc12 [Example 110, Thieno[3,2-d]pyrimidine-7-carboxylic acid [2,6-dichloro-3-(3-fluoro-propane-1-sulfonyl-amino)-phenyl]-amide] |
| < 0.1 | < 1 | 0.0014 | CCCS(=O)(=O)Nc1cc(F)cc(NC(=O)c2csc3c(N)ncnc23)c1Cl [Example 17, 4-Amino-thieno[3,2-d] pyrimidine-7-carboxylic acid [2-chloro-5-fluoro-3-(propane-1-sulfonyl-amino)-phenyl]-amide] |
| < 0.1 | < 1 | 0.012 | CCS(=O)(=O)Nc1ccc(F)c(NC(=O)c2csc3c(N)ncnc23)c1F [Example 2, 4-Amino-thieno pyrimidine-7-carboxylic acid (3-ethanesulfonylamino-2,6-difluoro-phenyl)-amide] |
| < 0.1 | < 1 | 0.00086 | CCCS(=O)(=O)Nc1ccc(F)c(NC(=O)c2csc3c(N)ncnc23)c1Cl [Example 5, 4-Amino-thieno[3,2-d] pyrimidine-7-carboxylic acid [2-chloro-6-fluoro-3-(propane-1-sulfonyl-amino)-phenyl]-amide] |
| < 0.1 | < 1 | 0.0019 | CCCS(=O)(=O)Nc1ccc(F)c(NC(=O)c2csc3c(NC4CC4)ncnc23)c1Cl [Example 43, 4-Cyclopropylamino-thieno[3,2-d]pyrimidine-7-carboxylic acid [2-chloro-6-fluoro-3-(propane-1-sulfonylamino)-phenyl]-amide] |
| < 0.1 | < 1 | 0.002 | CC(C)CS(=O)(=O)Nc1ccc(Cl)c(NC(=O)c2csc3c(N)ncnc23)c1F [Example 22, 4-Amino-thieno[3,2-d] pyrimidine-7-carboxylic acid [6-chloro-2-fluoro-3-(2-methyl-propane-1-sulfonylamino)-phenyl]-amide] |
